Reference: patent publication US11981617B2, “Ketamine pamoate and use thereof” (Alar Pharmaceuticals Inc., priority 2019, dated 2024)
Counter-ions that a name gives are not always drawn.

How the values were obtained:
DEX-treated mice [1] = test: Sedation behavior by rodent sedation rating scale; format: in vivo, ICR mice; conditions: s.c., 120 mg/kg of ketamine free-base; for sedation behavior (rodent sedation rating scale): immediately post injection to 14 days
Experimental: (§1) ICR mice were intraperitoneally injected with saline or DEX at postnatal day 1 to 3 (P1-P3) with dose decrement of 0.5 mg/kg, 0.3 mg/kg, and 0.1 mg/kg, respectively. The drugs for each group or saline were administered subcutaneously at postnatal day 35, P35 (i.e., dosing day 0, D0), and forced swimming test (FST) was conducted on dosing day 1 (D1, P36) and dosing day 10 (P45) after drug administration. Evaluation of sedation behavior was also conducted by sedation rating scale from the time immediately post injection to dosing day 14 (P49) after drug administration.
(§2) Neonatal ICR mice (BioLASCO, Taipei, Taiwan) were intraperitoneally injected with saline or DEX on postnatal day 1, 2, and 3 (P1, P2, and P3) at doses of 0.5 mg/kg, 0.3 mg/kg, and 0.1 mg/kg, respectively. […] The dugs were then subcutaneously injected into mice of the corresponding groups at postnatal day 35, while the mice of the Control and Saline groups were injected with equal volumes of 0.9% saline. Drugs for administration were prepared in phosphate-buffered saline (PBS), and then well mixed by high speed vortex before injection.
Furthermore, sedation behavior was also evaluated by rodent sedation rating scale (Table 6) immediately post drug administration to 14 days.

DEX-treated mice [2] = test: Forced swimming test (FST) in DEX-induced depression-like animal model; format: in vivo, ICR mice; conditions: 120 mg/kg of ketamine free-base; for onset of antidepressant effect on FST: single injection; for immobility time in FST: single s.c. injection
Experimental: as §1, §2
Antidepressant effects were evaluated by forced swimming test (FST), which performed on dosing day 1 (P36) and dosing day 10 (P45) after drug administration. The mice of all groups were trained for swimming before drug administration. During the FST, mice were individually placed into 5 L glass cylinders (height 27 cm, diameter 18 cm) filled with 4 L of water (23±1° C.). The total duration of immobility time during 5 minutes of FST was observed. Results were presented as mean±SEM. Student's t-test was utilized to analyze Saline group (DEX-treated mouse group injected with saline) versus the other groups at each time point. * p<0.05, ** p<0.01, and *** p<0.001 indicate significant differences compared to the Saline group.

[3] = system: female Sprague Dawley (SD) rats; test: 3-month repeat-dose toxicology study; conditions: for neuronal morphology in prefrontal cortex / bladder mucosal folds (histopathology) / bladder apical epithelial surfaces (histopathology): total 1440 mg/kg of ketamine free-base; for neuronal morphology in prefrontal cortex: brain slices; for bladder mucosal folds (histopathology): magnification x40; for bladder apical epithelial surfaces (histopathology): magnification x400; for injection site observation (skin surface) / injection site histopathology: inflammatory cells at higher magnification / injection site histopathology: tissue morphology: KET 60 mg/kg twice weekly, KEP 480 mg/kg monthly; for injection site histopathology: inflammatory cells at higher magnification / injection site histopathology: tissue morphology: HE staining
beagle dogs = test: Injection site evaluation by Draize skin erythema/eschar rating scale; format: in vivo; conditions: male beagle dogs, individual animals, single 44 mg/kg of ketamine free-base, Day 1, 2, 4, 8, 15
Experimental: A specific in vivo study to evaluate the injection site reaction of KEP was conducted in beagle dogs ([…] LABES, CO., LTD. Ina, Japan).

[4] = in vivo; cited from earlier work

Molecule: CNC1(c2ccccc2Cl)CCCCC1=O (centres unmarked) [KET, ketamine HCl, reference compound]
- sedation behavior (rodent sedation rating scale) (DEX-treated mice [1]): heavy sedation-related behavior
- time to full recovery from sedation (DEX-treated mice [1]; post administration): 2 h
- onset of antidepressant effect on FST (DEX-treated mice [2]): rapid-onset antidepressant effects
- immobility time in FST (DEX-treated mice [2]; day 1 after administration): reduced the immobility times
- immobility time in FST (DEX-treated mice [2]; day 10 after administration): reduced the immobility times
- neuronal morphology in prefrontal cortex ([3]; 12 weeks): granule cells were lack, and the morphology of pyramidal cells changed to be small or shrinking like in process of degradation
- bladder mucosal folds (histopathology) ([3]; 12 weeks): protrusive and enlarged mucosal folds
- bladder apical epithelial surfaces (histopathology) ([3]; 12 weeks): smooth
- pathological bladder and brain changes ([3]; high dose subchronic treatment for 12 weeks): bladder fibrosis and neuronal morphology alteration in brain
- injection site observation (skin surface) ([3]; s.c., 12 weeks): injection site erythema, which gradually became open wound
- injection site histopathology: inflammatory cells at higher magnification ([3]; s.c., 12 weeks): infiltration of inflammatory cells in connective tissues
- injection site histopathology: tissue morphology ([3]; s.c., 12 weeks): morphology damage on epidermis, dermis, subcutis, and muscle tissues
- maximum tolerated dose (MTD) ([3]; subcutaneous injection): 60 mg/kg of ketamine free-base

Molecule: R, S-ketamine pamoate [KEP]
- sedation behavior (rodent sedation rating scale) (DEX-treated mice [1]): normal behavior
- Draize skin erythema/eschar observation at injection site (beagle dogs): No erythema
- onset of antidepressant effect on FST (DEX-treated mice [2]): rapid-onset antidepressant effects
- immobility time in FST (DEX-treated mice [2]; day 1 after administration): reduced the immobility times
- immobility time in FST (DEX-treated mice [2]; day 10 after administration): reduced the immobility times
- tolerability of single subcutaneous injection ([3]; 480 mg/kg of ketamine free-base): well tolerable
- neuronal morphology in prefrontal cortex ([3]; 12 weeks): normal
- bladder mucosal folds (histopathology) ([3]; 12 weeks): thin mucosal folds
- bladder apical epithelial surfaces (histopathology) ([3]; 12 weeks): rough
- density of inflammatory cells at injection site under microscopic fields ([3]; s.c., 12 weeks, KEP 480 mg/kg monthly versus KET 60 mg/kg twice weekly): much less than KET group
- injection site observation (skin surface) ([3]; s.c., 12 weeks): normal skin surfaces
- injection site histopathology: inflammatory cells at higher magnification ([3]; s.c., 12 weeks): infiltration of inflammatory cells in connective tissues
- injection site histopathology: tissue morphology ([3]; s.c., 12 weeks): normal morphology of skin slices

Molecule: CN[C@]1(c2ccccc2Cl)CCCCC1=O [S-KEP, S-ketamine pamoate]
- sedation behavior (rodent sedation rating scale) (DEX-treated mice [1]): normal behavior
- onset of antidepressant effect on FST (DEX-treated mice [2]): rapid-onset antidepressant effects
- immobility time in FST (DEX-treated mice [2]; day 1 after administration): reduced the immobility times
- immobility time in FST (DEX-treated mice [2]; day 10 after administration): reduced the immobility times

Molecule: CN[C@@]1(c2ccccc2Cl)CCCCC1=O [R-KEP, R-ketamine pamoate]
- sedation behavior (rodent sedation rating scale) (DEX-treated mice [1]): normal behavior
- onset of antidepressant effect on FST (DEX-treated mice [2]): rapid-onset antidepressant effects
- immobility time in FST (DEX-treated mice [2]; day 1 after administration): reduced the immobility times
- immobility time in FST (DEX-treated mice [2]; day 10 after administration): reduced the immobility times

Molecule: CNC1(c2ccccc2Cl)CCCCC1=O (centres unmarked) [ketamine]
- LD50 dose [4]: 229 mg/kg
